Four compounds from PubChem BioAssay AID2254 (The Scripps Research Institute Molecular Screening Center, 2010) can be followed below.

pIC50: −log10 of the molar value.

This test deals with Serine hydrolase RBBP9 (Homo sapiens) (UniProt O75884). Briefly: human RBBP9 inhibitor potency, late-stage follow-up, biochemical, gel-based ABPP, IC50 (AID 2254). Conditions: fluorophosphonate probe labeling of RBBP9.
Chain of Serine hydrolase RBBP9 (Homo sapiens) (O75884 whole entry, looked up): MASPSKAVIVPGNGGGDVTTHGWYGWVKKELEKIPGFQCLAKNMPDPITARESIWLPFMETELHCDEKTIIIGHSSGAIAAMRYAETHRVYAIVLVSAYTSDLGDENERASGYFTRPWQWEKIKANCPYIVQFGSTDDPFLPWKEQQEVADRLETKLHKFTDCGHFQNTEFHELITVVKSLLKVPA

Usually pIC50 stands for the IC50 on a negative log10 scale, so that one unit is a factor of ten. Take `C/C(=N\OC(=O)C1CCCCC1)c1nccs1`: the pIC50 was 6.20.
On to `C/C(=N\OC(=O)c1ccc(Cl)cc1)c1nccs1`, for which the negative-log IC50 (pIC50) is 5.72.
For the compound `COc1ccc(C(=O)O/N=C(\C)c2nccs2)cc1`, the pIC50 is 5.04.
In the case of `C/C(=N\OC(=O)c1ccc(F)cc1)c1nccs1`, the negative-log IC50 (pIC50) was 5.24.
